Read-outs that look alike come from different tables or passages of the source.
Tests used:
[1] = tested on: Haemonchus contortus; details: cited from earlier work
[2] = tested on: C. elegans IVR10 strain; test: Rescue of Dyf7 gene in IVR10: ivermectin sensitivity of transgenic worms on NGM plates; format: in vivo, Caenorhabditis elegans; details: Dyf7 ttx 1 and Dyf7 ttx 2 strains (IVR10 with wildtype Dyf7 transgene), 6 ng/mL ivermectin, plated as eggs, scored at two days
Description: FIG. 2 illustrates the rescue of Dyf7 gene in C. elegans IVR10 strain. Effect of Dyf7 rescued (strains Dyf7 ttx 1 and Dyf7 ttx 2) on ivermectin sensitivity. Strains “ttx ctrl 1” and “ttx ctrl 2” contain only the ttx-3:GFP transgenic marker. Results are shown as the percentage of growth of transgenic nematodes (as measured by GFP expression) in function of the type of transgenic nematode and treatment.
The wild-type Bristol N2 C. elegans strain was cultured in nematode growth medium (NGM) with OP50 Escherichia coli under standard conditions (Brenner, 1974). The IVR6 and IVR10 resistant strains to ivermectin were derived from Bristol N2, by successive increasing concentrations of ivermectin (James and Davey, 2009). […]
Genomic DNA extracted from C. elegans C43C3 cosmid (provided by the Sanger Institute, UK) was used to amplify the Dyf7 gene using the primers Dyf7-CeB-sense-5′-[…]-3′ (SEQ ID NO: 3) and Dyf7-CeB-antisense-5′-CTCATTTCTGGTCAAACG-3′ (SEQ ID NO: 4). […] The worms were separated into transgenic and non-transgenic based on GFP expression (green channel) and then each population scored for resistance phenotype.
To determine if the Dyf7 rescuing fragment rescues the ivermectin-sensitivity phenotype of IVR10, each strain was plated, as eggs, onto NGM plates containing 6 ng/mL ivermectin and DMSO control plates. At two days, the L4 and adult worms were scored for presence of the transgene. […]

ivermectin
IVM Drug Phenotype ([1]; isolate 1202, Brazil): Resistant
IVM Drug Phenotype ([1]; isolate CRA, RSA): Susceptible
IVM Drug Phenotype ([1]; isolate Cedara, RSA): Resistant
IVM Drug Phenotype ([1]; isolate Coruzu, Argentina): Resistant
IVM Drug Phenotype ([1]; isolate F15, Brazil): Resistant
IVM Drug Phenotype ([1]; isolate Haecon, Australia): Resistant
IVM Drug Phenotype ([1]; isolate Howick, RSA): Resistant
IVM Drug Phenotype ([1]; isolate ISE, UK): Susceptible
IVM Drug Phenotype ([1]; isolate Kokstad, RSA): Resistant
IVM Drug Phenotype ([1]; isolate MOF23, USA): Moderate Resistant
IVM Drug Phenotype ([1]; isolate MOF23-9*, USA, 23 generations of moxidectin selection): Resistant
IVM Drug Phenotype ([1]; isolate PF23, USA): Susceptible
IVM Drug Phenotype ([1]; isolate PF23-24, USA): Susceptible
IVM Drug Phenotype ([1]; isolate Rog-gliswil, Switzerland): Resistant
IVM Drug Phenotype ([1]; isolate SUL, Uruguay): Resistant
IVM Drug Phenotype ([1]; isolate Sorin, France): Susceptible
IVM Drug Phenotype ([1]; isolate Wallangra 85, Australia): Susceptible
IVM Drug Phenotype ([1]; isolate Yallanbee, Australia): Susceptible
IVM phenotype of the strain ([1]; strain IVF23, ivermectin selected from the PF strain): resistant
growth of transgenic worms (escape from L1 arrest, L4 and adult worms scored for the transgene) [2]: no transgenic worms that escaped L1 arrest

Source: US20150017636A1, “Detection and Monitoring of Macrocyclic Lactone Resistance in Nematodes” (priority 2013, published 2015)
